Measured values: US7008636B2, “2,3,5-substituted biphenyls useful in the treatment of insulin resistance and hyperglycemia” (Wyeth, priority 1998, dated 2006)
Structures can show the parent of a compound that is named as a salt.

Row | melting point | Compound
1 | 143 to 145.4 °C | O=C(O)COc1c(-c2cccc(C(F)(F)F)c2)cc(C(=O)NCCCCCCCCc2ccccc2)cc1-c1cccc(C(F)(F)F)c1 [Example 7]
2 | > 94 °C (dec.) | O=C(O)COc1c(-c2cccc(Cl)c2)cc(C(=O)NCCc2ccccn2)cc1-c1cccc(Cl)c1 [Example 52, [3,3″-Dichloro-5′-(2-pyridin-2-yl-ethylcarbamoyl)-[1,1′;3′,1″]terphenyl-2′-yloxy]acetic acid]
3 | > 102 °C (dec.) | O=C(O)COc1c(Br)cc(C(=O)NCCc2ccccn2)cc1-c1cccc(Cl)c1 [Example 56, [3-Bromo-3′-chloro-5-(2-pyridin-2-yl-ethylcarbamoyl)-biphenyl-2-yloxy]acetic acid]
4 | > 92 °C (dec.) | O=C(O)COc1c(-c2cccc(Cl)c2)cc(C(=O)NCCc2ccccn2)cc1-c1cccc(C(F)(F)F)c1 [Example 58, [3″-Chloro-5′-(2-pyridin-2-yl-ethylcarbamoyl)-3-trifluoromethyl-[1,1′;3′,1″]terphenyl-2′-yloxy]acetic acid]
5 | > 106 °C (dec.) | O=C(O)COc1c(-c2cccc(Cl)c2)cc(C(=O)NCCCc2ccccc2)cc1-c1cccc(C(F)(F)F)c1 [Example 59, [3″-Chloro-5′-(3-phenyl-propylcarbamoyl)-3-trifluoromethyl-[1,1′;3′,1″]terphenyl-2′-yloxy]acetic acid]
6 | 173 to 175 °C | O=C(O)COc1c(-c2cccc(Cl)c2)cc(C(=O)NCCCC2CCCC2)cc1-c1cccc(C(F)(F)F)c1 [Example 61, [3″-Chloro-5′-(3-cyclopentyl-propylcarbamoyl)-3-trifluoromethyl-[1,1′;3′,1″]-terphenyl-2′-yloxy]acetic acid]
7 | > 102 °C (dec.) | O=C(O)COc1c(-c2cccc(Cl)c2)cc(C(=O)NCCc2ccc(Br)cc2)cc1-c1cccc(C(F)(F)F)c1 [Example 63, {5′-[2-(4-Bromo-phenyl)-ethylcarbamoyl]-3″-chloro-3-trifluoromethyl-[1,1′;3′,1″]-terphenyl-2′-yloxy}acetic acid]
8 | > 105 °C (dec.) | COc1ccc(-c2cc(C(=O)NCCc3ccccn3)cc(-c3cccc(C(F)(F)F)c3)c2OCC(=O)O)cc1 [Example 65, [4″-Methoxy-5′-(2-pyridin-2-yl-ethylcarbamoyl)-3-trifluoromethyl-[1,1′;3′,1″]-terphenyl-2′-yloxy]acetic acid]
9 | > 114 °C (dec.) | COc1ccc(-c2cc(C(=O)NCCCC3CCCC3)cc(-c3cccc(C(F)(F)F)c3)c2OCC(=O)O)cc1 [Example 66, [5′-(3-Cyclopentyl-propylcarbamoyl)-4″-methoxy-3-trifluoromethyl-[1,1′;3′,1″]-terphenyl-2′-yloxy]acetic acid]
10 | > 82 °C (dec.) | COc1ccc(-c2cc(C(=O)N(CCc3ccccc3)Cc3ccccc3)cc(-c3cccc(C(F)(F)F)c3)c2OCC(=O)O)cc1 [Example 67, [5′-(Benzyl-phenethyl-carbamoyl)-4″-methoxy-3-trifluoromethyl-[1,1′;3′,1″]-terphenyl-2′-yloxy]acetic acid]
11 | > 102 °C (dec.) | COc1ccc(-c2cc(C(=O)NCCc3ccccn3)cc(-c3ccccc3F)c2OCC(=O)O)cc1 [Example 70, [2-Fluoro-4″-methoxy-5′-(2-pyridin-2-yl-ethylcarbamoyl)-[1,1′;3′,1″]-terphenyl-2′-yloxy]acetic acid]
12 | > 89 °C (dec.) | COc1ccc(-c2cc(C(=O)NCCCc3ccccc3)cc(-c3ccccc3F)c2OCC(=O)O)cc1 [Example 71, [2-Fluoro-4″-methoxy-5′-(3-phenyl-propylcarbamoyl)-[1,1′;3′,1″]-terphenyl-2′-yloxy]acetic acid]

More lines, now with the values behind:

Row | Compound | melting point
13 | CCCCCCCCCCCCNC(=O)c1cc(-c2ccc(F)c(Cl)c2)c(OCC(=O)O)c(-c2ccc(F)c(Cl)c2)c1 (as salt: sodium) [Example 24, (3,3″-Dichloro-5′-dodecylcarbamoyl-4,4″-difluoro[1,1′;3′,1″]terphenyl(-2′-yloxy)-acetic acid sodium salt] | 140.2 to 141 °C
14 | CCOP(=O)(COc1c(-c2cccc(C(F)(F)F)c2)cc(C(=O)NCCCCCCCc2ccccc2)cc1-c1cccc(C(F)(F)F)c1)OCC (hydrate or solvate) | 84 to 85 °C
15 | O=C(NCCCCCCCc1ccccc1)c1cc(-c2cccc(C(F)(F)F)c2)c(OCP(=O)(O)O)c(-c2cccc(C(F)(F)F)c2)c1 (hydrate or solvate) [Example 128, [5′-(7-Phenyl-heptylcarbamoyl)-3,3″-bis-trifluoromethyl-[1,1′:3′,1″]terphenyl-2′-yloxymethyl]-phosphonic acid] | 160 to 165 °C
16 | COc1ccc(-c2cc(-c3ccc(C(=O)NCCCCCCCc4ccccc4)cc3)cc(-c3ccc(OC)cc3)c2OCc2ccc(C(=O)O)cc2)cc1 (hydrate or solvate) [Example 133] | 140 to 142 °C
17 | O=C(O)c1ccc(COc2c(-c3cccc(C(F)(F)F)c3)cc(C(=O)NCCCCCCCc3ccccc3)cc2-c2cccc(C(F)(F)F)c2)cc1 (hydrate or solvate) [Example 134, 4-[5′-(7-Phenyl-heptylcarbamoyl)-3,3″-bis-trifluoromethyl-[1,1′:3′,1″]terphenyl-2′-yloxymethyl]-benzoic acid] | 89 to 91 °C
18 | O=C(O)COc1c(-c2ccccc2)cc(C(=O)NCCCCCCCCc2ccccc2)cc1-c1cc(Cl)cc(Cl)c1 [Example 27, [3,5-Dichloro-5′-(8-phenyl-octylcarbamoyl)-[1,1′;3′,1″]terphenyl-2′-yloxy]-acetic acid] | 82 to 83.1 °C
19 | CCCCCCCCCCCCNC(=O)c1cc(-c2cccc(Cl)c2)c(OCC(=O)O)c(-c2cccc(Cl)c2)c1 [Example 33, (3,3″-Dichloro-5′-dodecylcarbamoyl-[1,1′;3′,1″]terphenyl-2′-yloxy)-acetic acid] | 151 to 156 °C
20 | CCCCCCCCCCCCNC(=O)c1cc(Br)c(OCC(=O)O)c(-c2cccc(Cl)c2)c1 [Example 34, (3-Bromo-3′-chloro-5-dodecylcarbamoyl-biphenyl-2-yloxy)-acetic acid] | > 100 °C (dec.)
21 | O=C(O)COc1c(-c2cccc(Cl)c2)cc(C(=O)NCCCCCCCCc2ccccc2)cc1-c1cccc(Cl)c1 [Example 35, [3,3″-Dichloro-5′-(8-phenyl-octylcarbamoyl)-[1,1′;3′,1″]terphenyl-2′-yloxy]-acetic acid] | 165 to 167 °C
22 | O=C(O)COc1c(-c2ccccc2)cc([N+](=O)[O-])cc1-c1ccccc1 [Example 38, (5′-Nitro-[1,1′;3′,1″]terphenyl-2′-yloxy)-acetic acid] | 153.5 to 156 °C
23 | COc1cc(-c2ccccc2)c(OCC(=O)O)c(-c2ccccc2)c1 [Example 39, (5′-Methoxy-[1,1′;3′,1″]terphenyl-2′-yloxy)acetic acid] | 143 to 145 °C
24 | O=C(O)COc1c(-c2ccccc2)cc(Br)cc1-c1ccccc1 [Example 40, (5′-Bromo-[1,1′;3′,1″]terphenyl-2′-yloxy)-acetic acid] | > 50 °C (dec.)
25 | O=C(O)COc1c(-c2ccccc2)cc(-c2ccccc2)cc1-c1ccccc1 [Example 41, [(5′-Phenyl[1,1′:3′,1″-terphenyl]-2′-yl)oxy]acetic acid] | > 68 °C (dec.)
26 | O=C(O)COc1c(-c2ccccc2)cc2oc3ccccc3c2c1-c1ccccc1 [Example 42, (1,3-Diphenyl-dibenzofuran-2-yloxy)-acetic acid] | > 120 °C (dec.)
27 | O=C(O)COc1c(Br)cc2oc(C(=O)c3ccccc3)cc2c1Br [Example 43, (2-Benzoyl-4,6-dibromo-benzofuran-5-yloxy)acetic acid] | 179 to 181 °C
28 | CCCCOc1cc(-c2ccccc2)c(OCC(=O)O)c(-c2ccccc2)c1 [Example 44, (5′-Butoxy-[1,1′;3′,1″]terphenyl-2′-yloxy)acetic acid] | 92 to 94 °C
29 | CCCCCCCCOc1cc(-c2ccccc2)c(OCC(=O)O)c(-c2ccccc2)c1 [Example 45, (5′-Octyloxy-[1,1′;3′,1″]terphenyl-2′-yloxy)acetic acid] | 82 to 84 °C
30 | O=C(O)COc1c(-c2cccc(Cl)c2)cc(C(=O)N(CCc2ccccc2)Cc2ccccc2)cc1-c1cccc(Cl)c1 [Example 53, [5′-(Benzyl-phenethyl-carbamoyl)-3,3″-Dichloro-[1,1′;3′,1″]terphenyl-2′-yloxy]acetic acid] | > 67 °C (dec.)
31 | O=C(O)COc1c(-c2cccc(Cl)c2)cc(C(=O)NCCCCc2ccccc2)cc1-c1cccc(Cl)c1 [Example 54, [3,3″-Dichloro-5′-(4-phenyl-butylcarbamoyl)-[1,1′;3′,1″]terphenyl-2′-yloxy]acetic acid] | > 164 °C (dec.)
32 | O=C(O)COc1c(Br)cc(C(=O)N(CCc2ccccc2)Cc2ccccc2)cc1-c1cccc(Cl)c1 [Example 55, [5-(Benzyl-phenethyl-carbamoyl)-3-bromo-3′-chloro-biphenyl-2-yloxy]acetic acid] | > 72 °C (dec.)
33 | O=C(O)COc1c(-c2cccc(Cl)c2)cc(C(=O)N(CCc2ccccc2)Cc2ccccc2)cc1-c1cccc(C(F)(F)F)c1 [Example 57, [5′-(Benzyl-phenethyl-carbamoyl)-3″-chloro-3-trifluoromethyl-[1,1′;3′,1″]terphenyl-2′-yloxy]acetic acid] | > 75 °C (dec.)
34 | O=C(O)COc1c(Br)cc(C(=O)NCCCC2CCCC2)cc1-c1cccc(Cl)c1 [Example 62, [3-Bromo-3′-chloro-5-(3-cyclopentyl-propylcarbamoyl)-biphenyl-2-yloxy]acetic acid] | > 135 °C (dec.)
35 | COc1ccc(-c2cc(C(=O)N(CCc3ccccc3)Cc3ccccc3)cc(-c3ccccc3F)c2OCC(=O)O)cc1 [Example 68, [5′-(Benzyl-phenethyl-carbamoyl)-2-fluoro-4″-methoxy-[1,1′;3′,1″]-terphenyl-2′-yloxy]acetic acid] | > 73 °C (dec.)
36 | O=C(O)COc1c(Br)cc(C(=O)N(CCc2ccccc2)Cc2ccccc2)cc1-c1ccccc1F [Example 69, [5-(Benzylphenethyl-carbamoyl)-3-bromo-2′-fluoro-biphenyl-2-yloxy]acetic acid] | > 85 °C (dec.)
37 | O=C(O)COc1c(Br)cc(C(=O)NCCc2ccccn2)cc1-c1ccccc1F [Example 72, [3-Bromo-2′-fluoro-5-(2-pyridin-2-yl-ethylcarbamoyl)-biphenyl-2-yloxy]acetic acid] | > 154 °C (dec.)
